pIC50: −log10 of the molar value. Where two headings read alike, the source gives them in different places.
Biological target: T1, human GnRH receptor (Homo sapiens, UniProt P30968)
T1 construct: expressed in transfected cells; host or cells: HEK 293 (hGnRH-R/293, from Dr. Stuart Sealfon)
T1 sequence (P30968 1-328): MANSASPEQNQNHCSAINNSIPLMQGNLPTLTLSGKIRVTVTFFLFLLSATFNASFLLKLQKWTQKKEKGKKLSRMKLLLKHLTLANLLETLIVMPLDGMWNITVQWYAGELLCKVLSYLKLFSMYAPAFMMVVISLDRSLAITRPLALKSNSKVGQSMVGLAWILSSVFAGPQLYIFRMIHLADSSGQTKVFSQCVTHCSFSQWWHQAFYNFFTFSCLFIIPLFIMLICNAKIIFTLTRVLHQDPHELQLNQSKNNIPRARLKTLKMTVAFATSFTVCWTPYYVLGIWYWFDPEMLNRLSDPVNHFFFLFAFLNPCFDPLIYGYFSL
Test: Radioligand binding, 125I-GnRH-A displacement, membranes of HEK 293 cells with human GnRH receptor
Conditions: for remaining activity at 10 µM: read-out: S%R 10 uM hGnRHR; for remaining activity at 1 µM: 1 uM compound, read-out: S%R 1 uM hGnRHR; for pIC50: read-out: hGnRH IC50
Protocol: All compounds were diluted in 1% DMSO (final assay concentration) in binding assay buffer. […] Reactions were terminated by rapid filtration onto 96-well Packard GF/C filters soaked in 0.1% polyethyleneimine. Filters were washed three times with PBS buffer, dried and counted on a Packard Topcount by liquid scintillation counting.
Assay conditions were identical for assessing compound activities at other species. […] IC50 values for control peptides and test compounds were calculated utilizing GraphPad Prism™ software.
Crude compounds were tested using the competitive radioligand binding assay described above.
The reaction mixture was vortexed and incubated for 1 min at room temperature. After one min, the mixture was vortexed and allowed to incubate for an additional minute. 2 ml of 0.5 M acetic acid/1% BSA was added to the reaction tube and the mixture was added to a C18 Sep-Pak cartridge. The cartridge was washed with subsequent washes of 5 ml H2O and 5 ml 0.5M acetic acid and then eluted with 5×1 ml of 60% CH3CN/40% 0.5M acetic acid. The eluate was diluted with 3× volume of HPLC buffer A (0.1% TFA in H2O) and loaded onto a C18 column. The iodinated product was eluted over 20-25 min with a gradient of 25-100% CH3CN containing 0.1% TFA. The radioactive fractions (750 ed/fraction) are collected into clean polypropylene tubes containing 100 μl of 10% BSA. Fractions were assessed for biological activity by radioligand binding.
S%R is the substrate remaining.

[1] = 1 h, substrate remaining, 10 uM compound, closer to zero = closer to 100% inhibition
[2] = 1 h, substrate remaining, closer to zero = closer to 100% inhibition
[3] = 1 uM, read-out: % Inhib. @ 1 uM hGnRH
[4] = 1 h, repeat of % Inhib. at 1 uM, read-out: Repeats @ 1 uM hGnRH

Row | SMILES | inhibition at 1 µM [3] [%] | inhibition at 1 µM [4] [%] | further results
1 | Cc1cnc(NC(=O)c2ccc(Cc3cc4c(cc3C)C(C)(C)CCC4(C)C)o2)s1 [Compound 331] |  |  | remaining activity at 10 µM [1]: 49%
2 | Cc1ccc(CNC(=O)c2ccc(Cc3cc4c(cc3C)C(C)(C)CCC4(C)C)o2)cc1C [Compound 440] |  |  | remaining activity at 1 µM [2]: 22%
3 | Cc1ccc(CNC(=O)c2ccc(Cc3cc4c(cc3C)C(C)(C)CCC4(C)C)o2)cc1 [Compound 435] |  |  | remaining activity at 1 µM [2]: 12%
4 | COc1cc(C)c(Cl)c(C)c1Cc1ccc(C(=O)NCc2cnc(C)cn2)o1 [Compound 237] |  |  | pIC50: < 5.00
5 | Cc1cc2c(cc1Cc1ccc(C(=O)NCCCN3CCCCC3C)o1)C(C)(C)CCC2(C)C (stereo not shown) [drawing 983] | 27 | 31 | 
6 | Cc1cc2c(cc1Cc1ccc(C(=O)Nc3ccc(O)c([N+](=O)[O-])c3)o1)C(C)(C)CCC2(C)C [Compound 371] |  |  | remaining activity at 10 µM [1]: 55%
7 | Cc1cc2c(cc1Cc1ccc(C(=O)NCCCCNc3nccc(NCC4CCCO4)n3)o1)C(C)(C)CCC2(C)C (stereo not shown) [Compound 69] |  |  | pIC50: 5.85
8 | Cc1cc2c(cc1Cc1ccc(C(=O)NC(CO)[C@H](O)c3ccc([N+](=O)[O-])cc3)o1)C(C)(C)CCC2(C)C (stereo partly shown) | -10 | -15 | 
9 | Cc1cc2c(cc1Cc1ccc(C(=O)NCc3cccc(Cl)c3Cl)o1)C(C)(C)CCC2(C)C [drawing 1102] | 62 | 69 | 
10 | Cc1cc2c(cc1Cc1ccc(C(=O)NCc3ccc(F)cc3)o1)C(C)(C)CCC2(C)C [drawing 1135] | 69 | 71 | 
11 | Cc1cc2c(cc1Cc1ccc(C(=O)NC3O[C@H](COC(=O)C(C)(C)C)[C@H](OC(=O)C(C)(C)C)[C@H](NC(=O)C(C)(C)C)[C@H]3OC(=O)C(C)(C)C)o1)C(C)(C)CCC2(C)C (stereo partly shown) [Compound 175] |  |  | pIC50: < 5.00
12 | Cc1cc2c(cc1Cc1ccc(C(=O)N(CCCO)Cc3ccccn3)o1)C(C)(C)CCC2(C)C [drawing 1107] | -4 | 0 | 
13 | Cc1cc2c(cc1Cc1ccc(C(=O)NC(C)C(O)c3ccccc3)o1)C(C)(C)CCC2(C)C (stereo not shown) | 12 | 14 | 
14 | Cc1cc2c(cc1Cc1ccc(C(=O)N(C)C(C)C(O)c3ccc(O)cc3)o1)C(C)(C)CCC2(C)C (stereo not shown) | -10 | -13 | 
15 | Cc1cc2c(cc1Cc1ccc(C(=O)NCCCc3ccccc3)o1)C(C)(C)CCC2(C)C [drawing 990] | 86 | 90 | 
16 | Cc1cc2c(cc1Cc1ccc(C(=O)NCCc3c[nH]c4ccc(OCc5ccccc5)cc34)o1)C(C)(C)CCC2(C)C | -6 | -7 | 
17 | Cc1cc2c(cc1Cc1ccc(C(=O)NCc3ccccc3C(F)(F)F)o1)C(C)(C)CCC2(C)C [drawing 997] | 11 | 6 | 
18 | Cc1cc2c(cc1Cc1ccc(C(=O)N[C@H](C)[C@@H](O)c3ccccc3)o1)C(C)(C)CCC2(C)C | 19 | 25 | 
19 | Cc1cc2c(cc1Cc1ccc(C(=O)NCc3ccccc3Oc3ccccc3CO)o1)C(C)(C)CCC2(C)C [Compound 421] |  |  | remaining activity at 1 µM [2]: 48%
20 | COc1cc(OC)c(CNC(=O)c2ccc(Cc3cc4c(cc3C)C(C)(C)CCC4(C)C)o2)c(OC)c1 [Compound 172] |  |  | pIC50: 5.49
21 | Cc1cc2c(cc1Cc1ccc(C(=O)Nc3ccccc3C(=O)NCc3cccnc3)o1)C(C)(C)CCC2(C)C [Compound 352] |  |  | remaining activity at 10 µM [1]: 51%
22 | Cc1cc2c(cc1Cc1ccc(C(=O)N(Cc3ccccn3)CC(C)C)o1)C(C)(C)CCC2(C)C [Compound 215] |  |  | pIC50: 5.11
23 | Cc1cc2c(cc1Cc1ccc(C(=O)NCC(=O)O)o1)C(C)(C)CCC2(C)C [Compound 162] |  |  | pIC50: < 5.00
24 | CCN(CC)CCNC(=O)c1ccc(NC(=O)c2ccc(Cc3cc4c(cc3C)C(C)(C)CCC4(C)C)o2)cc1 [Compound 321] |  |  | remaining activity at 10 µM [1]: 55%
25 | Cc1cc2c(cc1Cc1ccc(C(=O)NCc3cccc4c3Cc3ccccc3-4)o1)C(C)(C)CCC2(C)C | -21 | -23 | 
26 | Cc1cc2c(cc1Cc1ccc(C(=O)NCc3cccc(NC(=O)N(Cc4ccccc4)c4ccccc4)c3)o1)C(C)(C)CCC2(C)C [drawing 1029] | -4 | 2 | 
27 | Cc1cc2c(cc1Cc1ccc(C(=O)NCc3ccc(N(C)C)cc3)o1)C(C)(C)CCC2(C)C [drawing 1220] | 78 | 85 | 

Row | SMILES | inhibition at 1 µM [3] [%] | inhibition at 1 µM [4] [%] | further results
28 | Cc1cc2c(cc1Cc1ccc(C(=O)NCc3ccc(Cl)cc3Cl)o1)C(C)(C)CCC2(C)C [Compound 425] |  |  | remaining activity at 1 µM [2]: 42%
29 | Cc1cc2c(cc1Cc1ccc(C(=O)NCCCCCCNC(=O)c3ccc(Cc4cc5c(cc4C)C(C)(C)CCC5(C)C)o3)o1)C(C)(C)CCC2(C)C [Compound 28] |  |  | pIC50: < 5.00
30 | Cc1cc2c(cc1Cc1ccc(C(=O)NCc3ccc(Cl)c(C(F)(F)F)c3)o1)C(C)(C)CCC2(C)C | 15 | 19 | 
31 | Cc1cc2c(cc1Cc1ccc(C(=O)NCCc3cccc(F)c3)o1)C(C)(C)CCC2(C)C [Compound 54] |  |  | pIC50: 6.17
32 | COc1cccc(OC)c1CNC(=O)c1ccc(Cc2cc3c(cc2C)C(C)(C)CCC3(C)C)o1 | -3 | 2 | 
33 | Cc1cc2c(cc1Cc1ccc(C(=O)NCCCN(CCO)CCO)o1)C(C)(C)CCC2(C)C | 35 | 36 | 
34 | Cc1cc2c(cc1Cc1ccc(C(=O)N3CCN(c4ccc(C(F)(F)F)cc4[N+](=O)[O-])CC3)o1)C(C)(C)CCC2(C)C | -20 | -21 | 
35 | Cc1cc2c(cc1Cc1ccc(C(=O)NC(c3ccccc3)C(O)c3ccccc3)o1)C(C)(C)CCC2(C)C (stereo not shown) [Compound 403] |  |  | remaining activity at 1 µM [2]: 44%
36 | Cc1cc2c(cc1Cc1ccc(C(=O)Nc3ccc4c(=O)[nH][nH]c(=O)c4c3)o1)C(C)(C)CCC2(C)C [Compound 385] |  |  | S%R 10 uM hGnRHR (substrate remaining, 10 uM compound, closer to zero = closer to 100% inhibition): 41%
37 | Cc1cc2c(cc1Cc1ccc(C(=O)NCc3nc4ccccc4[nH]3)o1)C(C)(C)CCC2(C)C [drawing 1053] | 100 | 101 | 
38 | Cc1cc2c(cc1Cc1ccc(C(=O)N3CCN(c4ccc(Cl)c(Cl)c4)CC3)o1)C(C)(C)CCC2(C)C | -20 | -7 | 
39 | Cc1cc2c(cc1Cc1ccc(C(=O)NCc3c(CO)cnc(C)c3O)o1)C(C)(C)CCC2(C)C | -2 | 6 | 
40 | Cc1cc2c(cc1Cc1ccc(C(=O)NC(C)c3ccc([N+](=O)[O-])cc3)o1)C(C)(C)CCC2(C)C (stereo not shown) [drawing 1238] | 41 | 44 | 
41 | COc1cc(C)c(Cl)c(C)c1Cc1ccc(C(N)=O)o1 [AXC- 07450] |  |  | pIC50: < 5.00
42 | Cc1cc2c(cc1Cc1ccc(C(=O)NCc3cccc(CNc4ncnc5[nH]ccc45)c3)o1)C(C)(C)CCC2(C)C [Compound 180] |  |  | pIC50: 6.46
43 | Cc1cc2c(cc1Cc1ccc(C(=O)NCCN3CCNC3=O)o1)C(C)(C)CCC2(C)C [drawing 1041] | 32 | 44 | 
44 | Cc1cc2c(cc1Cc1ccc(C(=O)N(CCCO)Cc3ccccn3)o1)C(C)(C)CCC2(C)C [Compound 214] |  |  | pIC50: < 5.00
45 | Cc1cc2c(cc1Cc1ccc(C(=O)Nn3c(O)nnc3-c3ccncc3)o1)C(C)(C)CCC2(C)C |  |  | inhibition at 10 µM (repeat, read-out: Repeats @ 10 uM hGnRH (% inhib.)): -28%; inhibition at 10 µM (read-out: % inhib. @ 10 uM hGnRH): -17%
46 | CSc1ccccc1NC(=O)c1ccc(Cc2cc3c(cc2C)C(C)(C)CCC3(C)C)o1 [Compound 161] |  |  | pIC50: 6.52
47 | COC(=O)c1ccc(OC)c(NC(=O)c2ccc(Cc3cc4c(cc3C)C(C)(C)CCC4(C)C)o2)c1 [Compound 361] |  |  | remaining activity at 10 µM [1]: 4%
48 | N=C(N)NC[C@H]1CC[C@H](CNC(=O)c2ccc(Cc3ccccc3)o2)CC1 [Compound 34] |  |  | pIC50: < 5.00
49 | Cc1cc2c(cc1Cc1ccc(C(=O)NCCCC(=O)NC(c3ccccc3)c3ccccc3)o1)C(C)(C)CCC2(C)C | 17 | 28 | 
50 | Cc1cc2c(cc1Cc1ccc(C(=O)NCc3cccc(-c4ccccc4)c3)o1)C(C)(C)CCC2(C)C [Compound 66] |  |  | pIC50: 5.46
51 | Cc1ccc(CCNC(=O)c2ccc(Cc3cc4c(cc3C)C(C)(C)CCC4(C)C)o2)cc1 [drawing 1193] | 48 | 52 | 
52 | Cc1cc2c(cc1Cc1ccc(C(=O)NCCc3ccc(F)cc3)o1)C(C)(C)CCC2(C)C [Compound 446] |  |  | remaining activity at 1 µM [2]: 55%
53 | Cc1cc2c(cc1Cc1ccc(C(=O)NCCCN3CCCC3=O)o1)C(C)(C)CCC2(C)C [Compound 424] |  |  | remaining activity at 1 µM [2]: 31%

Source: US7101878B1 (Agouron Pharmaceuticals, Inc., priority 1998, dated 2006)
